From EP4813991A1 (iLeadBMS Co., Ltd., priority 2023, dated 2025)

Experiments:
KATO-III cells = experiment: Gastric cancer cell proliferation inhibitory activity (CellTiter Glo), KATO-III; format: cell-based; details: Homo sapiens, KATO III, 72 hours, relative IC50
Experimental: (§1) Experiments were performed using four types of gastric cancer cell lines (AGS, SNU-1, KATO-III, and MKN45) to measure the cell proliferation inhibitory ability of each Example compound. For AGS cells, 90 µL of cell suspension was dispensed into a 96-well plate using F-12K (Gibco) medium containing 10 % FBS, followed by incubation in a cell incubator at 37 °C and 5 % CO2. For SNU-1 and MKN45 cells, 90 µL of cell suspension was dispensed into a 96-well plate using RPMI1640 (Gibco) medium containing 10 % FBS, followed by incubation in a cell incubator at 37 °C and 5 % CO2. For KATO-III cells, 90 uL of cell suspension was dispensed into a 96-well plate using IMDM (Gibco) medium containing 10 % FBS, followed by incubation in a cell incubator at 37 °C and 5 % CO2. The next day, each Example compound dissolved and diluted in DMSO across 9 concentration ranges and a DMSO control group were added at 10 µL to each 96-well plate and treated for 72 hours. After completion of the compound treatment, 100 µL of CellTiter Glo (Promega) reagent was added to each well of the 96-well plate, followed by shaking for 10 minutes and standing at room temperature for 10 minutes. Luminescence signals were measured after inserting the 96-well plate into an Envision plate reader (PerkinElmer). Relative IC50 values were calculated by fitting a dose-response curve using XLfit (IDBS Ltd) software.
(§2) The gastric cancer cell proliferation inhibitory activities of the Example compounds measured by the method described above were evaluated according to the following criteria, and the results are presented in Table 16.

MDA-MB-436 cells = experiment: Breast cancer cell proliferation inhibitory activity, MDA-MB-436; format: cell-based; details: Homo sapiens, 72 hours, CellTiter Glo, relative IC50
Experimental: (§3) Experiments were conducted using three types of breast cancer cell lines to measure the cell proliferation inhibitory ability of each Example compound. For HCC70 cells, 100 µL of cell suspension was dispensed into a 96-well plate using RPMI1640 (Invitrogen) medium containing 10 % FBS, followed by incubation in a cell incubator at 37 °C and 5 % CO2. For BT-20 cells, 100 µL of cell suspension was dispensed into a 96-well plate using EMEM (Invitrogen) medium containing 10 % FBS, followed by incubation in a cell incubator at 37 °C and 5 % CO2. For MDA-MB-436 cells, 100 µL of cell suspension was dispensed into a 96-well plate using L-15 (Invitrogen) medium containing 10 % FBS, followed by incubation in a cell incubator at 37 °C and 0 % CO2. The next day, each Example compound dissolved and diluted in DMSO across 9 concentration ranges and a DMSO control group were treated on the cells for 72 hours. After completion of the compound treatment, 100 µL of CellTiter Glo (Promega) reagent was added to each well of the 96-wellplate, followed by shaking for 10 minutes and standing at room temperature for 10 minutes. After inserting the 96-well plate into an Envision plate reader (PerkinElmer), luminescence signals were measured. Relative IC50 values were calculated by fitting a dose-response curve using XL fit (IDBS Ltd) software.
(§4) The breast cancer cell proliferation inhibitory activities of the Example compounds measured by the method described above were evaluated according to the following criteria, and the results are presented in Table 15.

MKN45 cells = experiment: Gastric cancer cell proliferation inhibitory activity (CellTiter Glo), MKN45; format: cell-based; details: Homo sapiens, MKN-45, 72 hours, relative IC50
Experimental: as §1, §2

HCC70 cells = experiment: Breast cancer cell proliferation inhibitory activity, HCC70; format: cell-based; details: Homo sapiens, 72 hours, CellTiter Glo, relative IC50
Experimental: as §3, §4

AGS cells = experiment: Gastric cancer cell proliferation inhibitory activity (CellTiter Glo), AGS; format: cell-based; details: Homo sapiens, AGS, 72 hours, relative IC50
Experimental: as §1, §2

CDK1 = CDK1 (Homo sapiens, UniProt P06493); experiment: CDK1 kinase inhibitory activity assay and selectivity over CDK12; format: biochemical; details: for IC50: kinase reaction 120 minutes, 33P-gamma-ATP
Sequence of CDK1 (P06493 whole entry, species assumed): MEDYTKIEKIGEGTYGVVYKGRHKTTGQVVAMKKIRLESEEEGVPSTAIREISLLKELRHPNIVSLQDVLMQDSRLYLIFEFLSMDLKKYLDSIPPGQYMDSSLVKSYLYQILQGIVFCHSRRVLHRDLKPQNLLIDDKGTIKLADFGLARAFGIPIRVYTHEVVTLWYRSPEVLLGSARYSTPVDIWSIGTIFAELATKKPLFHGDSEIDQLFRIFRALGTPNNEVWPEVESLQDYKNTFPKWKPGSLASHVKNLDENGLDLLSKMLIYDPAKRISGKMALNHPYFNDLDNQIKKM
Sequence of CDK1 (P14635 whole entry partner, species assumed): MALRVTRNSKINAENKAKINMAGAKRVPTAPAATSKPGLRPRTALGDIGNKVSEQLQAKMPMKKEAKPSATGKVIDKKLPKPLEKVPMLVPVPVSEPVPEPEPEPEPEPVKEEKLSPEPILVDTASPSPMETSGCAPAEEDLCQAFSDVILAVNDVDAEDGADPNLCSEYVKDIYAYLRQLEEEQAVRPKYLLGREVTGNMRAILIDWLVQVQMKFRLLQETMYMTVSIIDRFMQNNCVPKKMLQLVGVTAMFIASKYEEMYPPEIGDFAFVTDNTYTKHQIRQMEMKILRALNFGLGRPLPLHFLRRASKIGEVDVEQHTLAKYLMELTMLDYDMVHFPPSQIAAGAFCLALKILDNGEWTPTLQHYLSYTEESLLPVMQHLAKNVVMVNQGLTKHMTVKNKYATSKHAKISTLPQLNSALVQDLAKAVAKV
Experimental: Before initiating the CDK1 and CDK2 kinase reactions, each Example compound was dissolved and diluted in DMSO as a solvent across 9 concentration ranges at room temperature. The diluted solutions were then incubated with a mixture of kinase and substrate (and cofactors, if required) for 20 minutes. Next, radioisotope-labeled ATP (^33P-gamma-ATP) was added to proceed with the kinase reaction at room temperature for 120 minutes. After the reaction was completed, the reaction mixture was transferred to a filter paper that binds the radioisotope-labeled catalytic product (^33P-substrate). Unreacted ^33P-ATP was removed by washing with 0.75 % phosphoric acid, and then the radioactive phosphorylated substrate remaining on the filter paper was measured. Kinase activity data were expressed as a percentage of the kinase activity remaining in the test sample compared to a DMSO control group. The half-maximal inhibitory concentration (IC50) for each kinase was calculated using Prism software.
The CDK1 and CDK2 kinase inhibitory activities of the Example compounds measured by the above method were evaluated according to the following criteria, and the results are presented in Table 14.

CDK12 = CDK12 (Homo sapiens, UniProt Q9NYV4); experiment: Cellular CDK12 inhibitory activity assay (Ser2 phosphorylation of RNA polymerase II subunit B1 CTD in MDA-MB-231 cells); format: cell-based; set-up: using MDA-MB-231 breast cancer cells; endogenous in cells; host or cells: MDA-MB-231; details: MDA-MB-231 cells, 6 hours treatment; read-out: pRpbl CTD S2 IC50
Sequence of CDK12 (Q9NYV4 whole entry, species assumed): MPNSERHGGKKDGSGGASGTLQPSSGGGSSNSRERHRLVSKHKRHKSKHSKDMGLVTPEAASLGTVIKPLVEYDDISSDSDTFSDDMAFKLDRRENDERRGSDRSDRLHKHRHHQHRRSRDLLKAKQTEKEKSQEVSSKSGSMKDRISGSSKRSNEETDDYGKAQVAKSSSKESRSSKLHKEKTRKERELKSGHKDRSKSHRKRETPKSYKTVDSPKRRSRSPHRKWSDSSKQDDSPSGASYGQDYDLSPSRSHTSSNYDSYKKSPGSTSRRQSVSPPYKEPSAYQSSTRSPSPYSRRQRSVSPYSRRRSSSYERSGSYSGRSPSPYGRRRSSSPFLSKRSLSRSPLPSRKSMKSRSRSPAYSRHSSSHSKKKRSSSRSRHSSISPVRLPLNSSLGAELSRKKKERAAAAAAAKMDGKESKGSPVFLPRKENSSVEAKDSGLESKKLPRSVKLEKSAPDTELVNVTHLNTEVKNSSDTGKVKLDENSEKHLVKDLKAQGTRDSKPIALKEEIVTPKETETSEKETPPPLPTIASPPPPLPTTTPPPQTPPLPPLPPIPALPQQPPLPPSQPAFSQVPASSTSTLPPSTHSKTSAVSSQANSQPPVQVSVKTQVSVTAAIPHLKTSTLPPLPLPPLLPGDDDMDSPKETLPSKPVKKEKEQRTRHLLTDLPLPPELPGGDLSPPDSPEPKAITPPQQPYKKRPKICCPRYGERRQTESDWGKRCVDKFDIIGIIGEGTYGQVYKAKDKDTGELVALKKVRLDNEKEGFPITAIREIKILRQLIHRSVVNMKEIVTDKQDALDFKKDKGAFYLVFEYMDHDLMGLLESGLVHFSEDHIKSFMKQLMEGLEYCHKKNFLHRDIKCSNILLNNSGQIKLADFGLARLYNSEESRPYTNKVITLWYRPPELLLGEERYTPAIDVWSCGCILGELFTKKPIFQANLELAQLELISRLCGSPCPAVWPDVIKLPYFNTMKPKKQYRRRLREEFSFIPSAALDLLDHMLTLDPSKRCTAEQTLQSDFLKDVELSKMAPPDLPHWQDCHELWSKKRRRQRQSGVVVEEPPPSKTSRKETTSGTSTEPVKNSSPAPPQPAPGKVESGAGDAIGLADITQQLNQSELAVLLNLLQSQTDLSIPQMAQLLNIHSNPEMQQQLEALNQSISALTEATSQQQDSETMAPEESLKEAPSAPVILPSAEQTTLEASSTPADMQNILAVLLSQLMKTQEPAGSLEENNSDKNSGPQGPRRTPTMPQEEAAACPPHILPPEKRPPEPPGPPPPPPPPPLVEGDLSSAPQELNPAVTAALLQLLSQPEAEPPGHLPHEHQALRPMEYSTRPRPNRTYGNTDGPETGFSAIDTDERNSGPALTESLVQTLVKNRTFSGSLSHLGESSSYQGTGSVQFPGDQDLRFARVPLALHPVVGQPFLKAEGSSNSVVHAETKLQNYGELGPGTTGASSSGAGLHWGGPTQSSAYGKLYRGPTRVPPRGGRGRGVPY
Sequence of CDK12 (O75909 whole entry partner, species assumed): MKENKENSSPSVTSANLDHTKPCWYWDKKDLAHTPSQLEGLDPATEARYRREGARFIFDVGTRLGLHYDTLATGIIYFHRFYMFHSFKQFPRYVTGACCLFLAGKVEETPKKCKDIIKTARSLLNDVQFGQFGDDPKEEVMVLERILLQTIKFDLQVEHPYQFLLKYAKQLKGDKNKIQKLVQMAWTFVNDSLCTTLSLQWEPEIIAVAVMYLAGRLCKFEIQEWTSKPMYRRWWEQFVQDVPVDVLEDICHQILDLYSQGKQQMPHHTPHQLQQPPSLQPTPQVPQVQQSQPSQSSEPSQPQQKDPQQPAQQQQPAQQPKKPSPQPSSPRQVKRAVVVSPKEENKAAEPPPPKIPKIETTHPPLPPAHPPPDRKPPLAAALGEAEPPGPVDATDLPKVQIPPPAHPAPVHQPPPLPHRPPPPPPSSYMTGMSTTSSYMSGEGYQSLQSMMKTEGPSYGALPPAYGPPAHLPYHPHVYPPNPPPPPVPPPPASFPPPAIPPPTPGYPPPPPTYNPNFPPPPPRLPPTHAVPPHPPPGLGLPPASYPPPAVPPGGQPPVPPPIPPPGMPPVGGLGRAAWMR
Summary of the method: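 MDA-MB-231 cells in L-15 with 10 % FBS were treated with compound at 9 concentrations for 6 h at 37 °C, 0 % CO2. In-Cell Western read phospho-Ser2 and total RNA polymerase II CTD on a Li-COR Odyssey; IC50 from 4-parameter dose-response fit.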

| IC50 (KATO-III cells) | IC50 (MDA-MB-436 cells) | IC50 (MKN45 cells) | IC50 (AGS cells) | CDK1/CDK12 (CDK1; ratio of CDK1 IC50 to CDK12 IC50) | Compound | IC50 (HCC70 cells) | IC50 (CDK1) | IC50 (CDK12) |
| --- | --- | --- | --- | --- | --- | --- | --- | --- |
| ≤ 200 nM | ≤ 50 nM | ≤ 200 nM | ≤ 200 nM | A (CDK1/CDK12 or CDK2/CDK12 > 500-fold) | CN1CCN(c2cc(NCc3nc4ccc(F)c(F)c4[nH]3)c3ncc(C(F)(F)F)n3n2)CC1 [Example 8, N-((6,7-difluoro-1H-benzo[d]imidazol-2-yl)methyl)-6-(4-methylpiperazin-1-yl)-3-(trifluoromethyl)imidazo[1,2-b]pyridazin-8-amine] | ≤ 50 nM | > 1000 nM | < 300 nM |
| ≤ 200 nM | ≤ 50 nM | ≤ 200 nM | ≤ 200 nM |  | CN1CCN(c2cc(NCc3nc4cc(Cl)c(Cl)cc4[nH]3)c3ncc(C(F)(F)F)n3n2)CC1 [Example 29, N-((5,6-dichloro-1H-benzo[d]imidazol-2-yl)methyl)-6-(4-methylpiperazin-1-yl)-3-(trifluoromethyl)imidazo[1,2-b]pyridazin-8-amine] | ≤ 50 nM | > 1000 nM | < 300 nM |
|  |  |  |  |  | Nc1ncc(-c2cc(NCc3nc4cc(Cl)c(Cl)cc4[nH]3)c3ncc(C(F)(F)F)n3n2)cn1 [Example 40] |  | > 1000 nM | < 300 nM |

| Compound | IC50 (KATO-III cells) | IC50 (MDA-MB-436 cells) | IC50 (MKN45 cells) | IC50 (AGS cells) | CDK1/CDK12 (CDK1; ratio of CDK1 IC50 to CDK12 IC50) | IC50 (HCC70 cells) | IC50 (CDK1) | IC50 (CDK12) |
| --- | --- | --- | --- | --- | --- | --- | --- | --- |
| N#CC1CN(c2cc(NCc3nc4cc(Cl)c(Cl)cc4[nH]3)c3ncc(C(F)(F)F)n3n2)C1 [Example 30, 1-(8-(((5,6-dichloro-1H-benzol[d]imidazol-2-yl)methyl)amino)-3-(trifluoromethyl)imidazo[1,2-b]pyridazin-6-yl)azetidine-3-carbonitrile] | ≤ 200 nM | ≤ 50 nM | ≤ 200 nM | ≤ 200 nM |  | ≤ 50 nM | > 1000 nM | < 300 nM |
